Results on 21 compounds are retold here after patent US8329904B2, “Azacyclic derivatives” (Hoffmann-La Roche Inc., priority 2009, dated 2012).

A word on the IC50: it is the concentration that inhibits the measured activity by half.

For the assay, the target named is T1, human HSL (Homo sapiens, UniProt Q05469).
T1 construct: overlapping PCR to generate a full length human HSL ORF with a 3′-His6 tag; His6 (C); made in house; host or cells: High 5 insect cells (baculovirus, pFast-BAC)
T1 sequence (Q05469 1-1076): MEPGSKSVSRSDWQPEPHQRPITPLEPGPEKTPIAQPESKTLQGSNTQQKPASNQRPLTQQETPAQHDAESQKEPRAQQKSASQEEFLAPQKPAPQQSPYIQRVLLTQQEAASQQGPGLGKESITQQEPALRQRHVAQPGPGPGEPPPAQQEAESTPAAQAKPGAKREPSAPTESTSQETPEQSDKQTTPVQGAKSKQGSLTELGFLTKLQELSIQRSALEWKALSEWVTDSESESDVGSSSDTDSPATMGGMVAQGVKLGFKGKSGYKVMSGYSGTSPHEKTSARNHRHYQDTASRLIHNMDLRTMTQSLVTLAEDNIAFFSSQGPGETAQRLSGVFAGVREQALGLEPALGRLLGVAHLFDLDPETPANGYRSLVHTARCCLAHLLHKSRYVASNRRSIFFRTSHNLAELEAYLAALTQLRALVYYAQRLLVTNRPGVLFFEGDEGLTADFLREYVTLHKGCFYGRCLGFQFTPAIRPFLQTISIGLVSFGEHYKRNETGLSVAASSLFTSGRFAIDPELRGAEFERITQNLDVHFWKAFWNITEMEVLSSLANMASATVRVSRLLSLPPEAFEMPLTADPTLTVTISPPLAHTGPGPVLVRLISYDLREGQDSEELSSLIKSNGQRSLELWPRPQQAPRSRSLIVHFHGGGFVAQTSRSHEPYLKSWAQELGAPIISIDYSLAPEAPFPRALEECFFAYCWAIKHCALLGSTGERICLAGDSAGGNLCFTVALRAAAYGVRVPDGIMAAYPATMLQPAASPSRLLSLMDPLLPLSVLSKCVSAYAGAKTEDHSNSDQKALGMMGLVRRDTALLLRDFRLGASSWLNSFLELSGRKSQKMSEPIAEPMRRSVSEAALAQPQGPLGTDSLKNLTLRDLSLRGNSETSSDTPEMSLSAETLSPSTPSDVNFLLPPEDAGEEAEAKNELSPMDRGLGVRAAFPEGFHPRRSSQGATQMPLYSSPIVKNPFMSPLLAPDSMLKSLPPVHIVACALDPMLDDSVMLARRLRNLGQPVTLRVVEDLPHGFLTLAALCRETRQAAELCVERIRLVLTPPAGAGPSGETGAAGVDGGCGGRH
The experiment in a line: Human Hormone-Sensitive Lipase (HSL) Enzyme Inhibition Assay. The class given is biochemical. The conditions noted are these: colorimetric assay, 2,3-dimercapto-1-propanol tributyrate (DMPT) substrate, 37° C. for 20 minutes, absorbance at 405 nm; read-out: HSL hum IC50. Here is the method: Production of Human Full Length Hormone Sensitive Lipase-His^6
1) Cloning: cDNA was prepared from commercial human brain polyA-+ RNA and used as a template in overlapping PCR to generate a full length human HSL ORF with a 3′-His6 tag. This full length insert was cloned into the pFast-BAC vector and the DNA-sequence of several single clones was verified. DNA from a correct full length clone with the 3′His6 tag was used to transform the E. coli strain DH10BAC. Resulting bacmid DNA was used to generate a titered baculovirus stock for protein generation.
Cells were thawed. […] was done at 3×30 sec., Lubrol PX was added to 0.2% final concentration followed by stirring for 15 min. at 4° C. and centrifugation at 25 k×g, 60 min., 4° C. […] Supernatant was removed, the resin washed in the centrifuge vessel using 5 volumes of Base Buffer containing 0.2% Lubrol PX. Centrifugation was done again, then the supernatant discarded. The resin wass poured onto a 0.8 μm membrane in a disposable filter unit (Nalge 450-0080), and washed with 5 volumes of Base Buffer containing 0.2% Lubrol PX. It was then washed with 30 volumes of Base Buffer containing 60 mM imidazole pH 7.5 at 4° C. The protein was eluated with 5 volumes of 25 mM Tris-Cl, 300 mM NaCl, 200 mM imidazole, 10 mM 2-mercaptoethanol, pH 7.5 at 4° C. by tumbling resin with buffer end-over-end, 30 min., 4° C. The resin was captured on a 0.2 μm membrane disposable filter unit (Millipore SCGP U02 RE) and the eluate collected in the reservoir. The eluate was concentrated using a 30 k MWCO centrifugal filter device (Sartorius Vivascience Vivacell 100, VC1022), to 20 ml. It was then dialyzed overnight at 4° C., two times against 2 L of 10% glycerol, 25 mM Tris-Cl, 300 mM NaCl, 0.2 mM EDTA, 0.2 mM DTT, pH 7.5 at 4° C. The protein was filtered using a 0.22 μm disposable filter unit (Millipore SCGP00525). The protein concentration was calculated from absorbance at 280 nm, using 280=0.67 cm-1 mg-1. […] The protein was stored at −80° C.
Human Hormone-Sensitive Lipase (HSL) Enzyme Inhibition Assay:
HSL enzyme activity was measured by a colorimetric assay using 2,3-dimercapto-1-propanol tributyrate (Aldrich, St. Louis, Mo.) as a substrate. Typically, 1.5 mM 2,3-dimercapto-1-propanol tributyrate (DMPT) in 100 mM MOPS, pH 7.2, 0.2 mg/ml fatty acid-free BSA was prepared by sonication at 4° C. to homogenous suspension. Test compounds (2 mM stock in DMSO) were diluted 3 fold in series in DMSO. Compound solutions were diluted 24 fold in 1.5 mM DMPT containing solution and 18 ul per well was added to 384-well microplates (Corning Costar). Twelve microliters per well of human HSL (15 ug/ml) was added and the reaction mixture was incubated at 37° C. for 20 minutes. Six microliters of 12 mM dithio-bis-(2-nitrobenzoic acid) (DTNB) in DMSO plus 1.2% SDS and 0.6% Triton X-100 were added and the mixture was incubated at room temperature for 15 minutes. Product production was monitored by reading absorbance at 405 nm on an Envision Reader (PerkinElmer Life and Analytical Sciences, Shelton, Conn.).
For `CCCN(C)C(=O)N1CCC2(CC1)CCN(c1ccc(CC)cc1)C2=O` [Example 252, 2-(4-Ethyl-phenyl)-1-oxo-2,8-diaza-spiro[4.5]decane-8-carboxylic acid methyl-propyl-amide], the IC50 stood at 180 nM. In the case of `CC(C)(C)CC(=O)N1CCC2(CC1)CCN(c1ccc(CC(F)(F)F)cc1)C2=O` [Example 40, 8-(3,3-Dimethyl-butyryl)-2-[4-(2,2,2-trifluoro-ethyl)-phenyl]-2,8-diaza-spiro[4.5]decan-1-one], the IC50 came to 80 nM.

In the case of `CC(C)(C)CCC(=O)N1CCC2(CC1)CCN(c1ccc(OC(F)(F)F)cc1)C2=O` [Example 14, 8-(4,4-Dimethyl-pentanoyl)-2-(4-trifluoromethoxy-phenyl)-2,8-diaza-spiro[4.5]decan-1-one], the IC50 was 170 nM. As to `CN(C)c1ncccc1S(=O)(=O)N1CCC2(CCN(c3ccc(OC(F)(F)F)cc3)C2=O)CC1` [Example 190, 8-(2-Dimethylamino-pyridine-3-sulfonyl)-2-(4-trifluoromethoxy-phenyl)-2,8-diaza-spiro[4.5]decan-1-one], the IC50 was found to be 20 nM. For `O=C1N(CCc2cccc(Cl)c2)CCC12CCN(S(=O)(=O)c1ccccc1Cl)CC2` [Example 247, 8-(2-Chloro-benzenesulfonyl)-2-[2-(3-chloro-phenyl)-ethyl]-2,8-diaza-spiro[4.5]decan-1-one] the value was 80 nM; for `CC(Oc1ccc(N2CCC3(CCN(S(=O)(=O)C4CC4)CC3)C2=O)cc1)C(F)(F)F` (stereo not drawn) [Example 98, 8-Cyclopropanesulfonyl-2-[4-(2,2,2-trifluoro-1-methyl-ethoxy)-phenyl]-2,8-diaza-spiro[4.5]decan-1-one], 170 nM; for `O=C1N(c2ccc(C3CC3)cc2)CCC12CCN(S(=O)(=O)c1ccccc1Cl)CC2` [Example 33, 8-(2-Chloro-benzenesulfonyl)-2-(4-cyclopropyl-phenyl)-2,8-diaza-spiro[4.5]decan-1-one], 30 nM. Regarding `CC(C)(C)CC(=O)N1CCC2(CC1)CCN(c1ccc(C(O)C(C)(F)F)cc1)C2=O` (stereo not drawn) [Example 175, 2-(4-(2,2-difluoro-1-hydroxypropyl)phenyl)-8-(3,3-dimethylbutanoyl)-2,8-diazaspiro[4.5]decan-1-one], the IC50 was 750 nM. For `Nc1ncccc1S(=O)(=O)N1CCC2(CCN(c3ccc(OC(F)(F)F)cc3)C2=O)CC1` [Example 197, 8-(2-Amino-pyridine-3-sulfonyl)-2-(4-trifluoromethoxy-phenyl)-2,8-diaza-spiro[4.5]decan-1-one], the IC50 amounted to 80 nM.

As to `O=C1N(CCc2cccc(F)c2)CCC12CCN(S(=O)(=O)c1ccccc1Cl)CC2` [Example 243, 8-(2-Chloro-benzenesulfonyl)-2-[2-(3-fluoro-phenyl)-ethyl]-2,8-diaza-spiro[4.5]decan-1-one], the IC50 stood at 50 nM. As for `O=C1N(c2ccc(OC(F)(F)F)cc2)CCC12CCN(S(=O)(=O)c1cccnc1O)CC2` [Example 196, 8-(2-Hydroxy-pyridine-3-sulfonyl)-2-(4-trifluoromethoxy-phenyl)-2,8-diaza-spiro[4.5]decan-1-one], the IC50 came out at 230 nM. As for `O=C1N(c2ccc(OC(F)(F)F)cc2)CCC12CCN(S(=O)(=O)/C=C1/CCCO1)CC2` [Example 213, 8-[Dihydro-furan-(2Z)-ylidenemethanesulfonyl]-2-(4-trifluoromethoxy-phenyl)-2,8-diaza-spiro[4.5]decan-1-one], the IC50 came to 150 nM.

In the case of `CCS(=O)(=O)c1ccc(N2CCC3(CCN(S(=O)(=O)c4ccccc4Cl)CC3)C2=O)cc1` [Example 156, 8-(2-Chloro-benzenesulfonyl)-2-(4-ethanesulfonyl-phenyl)-2,8-diaza-spiro[4.5]decan-1-one], the IC50 was 60 nM. Regarding `CCN(CC)S(=O)(=O)N1CCC2(CCN(c3ccc(OC(F)(F)F)cc3)C2=O)CC1` [Example 291, 1-Oxo-2-(4-trifluoromethoxy-phenyl)-2,8-diaza-spiro[4.5]decane-8-sulfonic acid diethylamide], the IC50 was found to be 90 nM. Take `CCCc1ccc(N2CCC3(CCN(S(=O)(=O)c4ccccc4OC(F)(F)F)CC3)C2=O)cc1` [Example 58, 2-(4-Propyl-phenyl)-8-(2-trifluoromethoxy-benzenesulfonyl)-2,8-diaza-spiro[4.5]decan-1-one]: the IC50 is 40 nM. To `CCCCOc1ccc(N2CCC3(CCN(S(=O)(=O)c4ccccc4OC(F)(F)F)CC3)C2=O)cc1` [Example 88, 2-(4-Butoxy-phenyl)-8-(2-trifluoromethoxy-benzenesulfonyl)-2,8-diaza-spiro[4.5]decan-1-one] belongs 50 nM; to `O=C1N(c2ccc(C(F)(F)F)c(Cl)c2)CCC12CCN(S(=O)(=O)c1ccccc1Cl)CC2` [Example 227, 8-(2-Chloro-benzenesulfonyl)-2-(3-chloro-4-trifluoromethyl-phenyl)-2,8-diaza-spiro[4.5]decan-1-one], 80 nM; to `CC(C)CN(C)S(=O)(=O)N1CCC2(CCN(c3ccc(OC(F)(F)F)cc3)C2=O)CC1` [Example 293, 1-Oxo-2-(4-trifluoromethoxy-phenyl)-2,8-diaza-spiro[4.5]decane-8-sulfonic acid isobutyl-methyl-amide], 80 nM. For the compound `CCN(CCOC)S(=O)(=O)N1CCC2(CCN(c3ccc(OC(F)(F)F)cc3)C2=O)CC1` [Example 294, 1-Oxo-2-(4-trifluoromethoxy-phenyl)-2,8-diaza-spiro[4.5]decane-8-sulfonic acid ethyl-(2-methoxy-ethyl)-amide], the IC50 amounted to 90 nM. `CCOC(=O)Cc1ccc(N2CCC3(CCN(S(=O)(=O)c4ccccc4Cl)CC3)C2=O)cc1` [Example 134, {4-[8-(2-Chloro-benzenesulfonyl)-1-oxo-2,8-diaza-spiro[4.5]dec-2-yl]-phenyl}-acetic acid ethyl ester]: the IC50 worked out at 50 nM. Consider `CN(CCc1ccccc1)S(=O)(=O)N1CCC2(CCN(c3ccc(OC(F)(F)F)cc3)C2=O)CC1` [Example 297, 1-Oxo-2-(4-trifluoromethoxy-phenyl)-2,8-diaza-spiro[4.5]decane-8-sulfonic acid methyl-phenethyl-amide], for which the IC50 is 110 nM.
